Source: patent EP2098236A1, “Cytostatic compositions” (Medizinische Hochschule Hannover, priority 2008, dated 2009)

Assays:
childhood ALL [1] = conditions: CCG-1952, cited from earlier work; for event-free survival: at 5 years, p = 0.02
childhood ALL [2] = conditions: UK MRC ALL 97, cited from earlier work
[3] = tested on: TPMT wildtype lymphoblastoid cells; assay: cells; conditions: Homo sapiens, Lymphoblastoid cell, 72 h, read-out: Mean percentage viable cells after 72 h
[4] = in vivo; cited from earlier work
[5] = tested on: patients with childhood ALL; conditions: cited from earlier work; for central nervous system (CNS) relapse: COALL-92, maintenance, p = 0.053

| Structure (SMILES) | event-free survival (childhood ALL [1]) [%] | patients who developed non-fatal hepatic toxicity with features of veno-occlusive disease (VOD) (childhood ALL [2]) | viability at 0.125 µM [3] [%] | viability at 0.25 µM [3] [%] | viability at 0.5 µM [3] [%] | viability at 1 µM [3] [%] | half lives [4] | central nervous system (CNS) relapse [5] [%] | Treatment interruptions ([5]; COALL-92) | patients with hepatic VOD-like symptoms (childhood ALL [1]) | isolated disease recurrence in the CNS, odds ratio (childhood ALL [2]; vs 6-mercaptopurine, 95% confidence interval 0.30 - 0.92) | risk of death in remission, odds ratio (childhood ALL [2]; vs 6-mercaptopurine, 95% confidence interval 1.20 - 4.14, mainly due to infections) | viability at 0.0625 µM [3] [%] | Treatment interruptions, higher rate compared to the 6-mercaptopurine arm ([5]; COALL-92) [fold] | incidence of thrombocytopenia (< 100 x 10^9/l) without evidence of leukocytopenia (<1 x 10^9/l), higher compared to the 6-mercaptopurine arm ([5]; COALL-92) [fold] |
| --- | --- | --- | --- | --- | --- | --- | --- | --- | --- | --- | --- | --- | --- | --- | --- |
| Sc1ncnc2nc[nH]c12 [MP, 6-mercaptopurine] | 77.1 | less than 2% | 89.3 | 84.7 | 79.8 | 73.1 | approximately 21 minutes | 0.8 | 2.8 % of maintenance treatment weeks |  |  |  |  |  |  |
| Nc1nc2nc[nH]c2c(=S)[nH]1 [TG, 6-thioguanine] | 85.1 | 11% | 75.9 | 71.3 |  |  | ~90 min | 3.4 | 4.7 % of maintenance treatment weeks | approximately 20% | 0.53 | 2.22 | 81.2 | 1.7 | 7.5 |
